Literature values as cited in patent US20100310652A1, “COATED EXTENDED RELEASE PHARMACEUTICAL COMPOSITIONS OF LEVETIRACETAM” (Alembic Limited, priority 2007, published 2010).
Values after ≈ are worked out from the molar mass of the structure shown.

Legend:
[1] = in 15 minutes, three different pH media
[2] = highly permeable

- drug released [1]: more than 85%
- aqueous solubility: 1040 mg/mL (≈ 6110 mM)
- permeability (F) [2]: > 90%
Structure (SMILES): CC[C@@H](C(N)=O)N1CCCC1=O [Levetiracetam, (−)-(S)-α-ethyl-2-oxo-1-pyrrolidine acetamide]
